From patent publication US7511074B2, “Tetrafluorobenzyl derivatives and pharmaceutical composition for preventing and treating acute and chronic neurodegenerative diseases in central nervous system containing the same” (AmKor Pharma, Inc., priority 2002, dated 2009) come the findings set out here.

Structures are written as SMILES.

The subject of the first data set is Mouse cortical cell cultures. The experiment in a line: FeCl2-induced free radical neurotoxicity in mixed cortical cell cultures (LDH assay). In kind it is cell-based. Conditions: continuous 50 μM FeCl2; 1-30 μM; LDH 24 hr later. As to the method:
(§1) Mouse cortical cell cultures (DIV 12-14) were exposed to continuously to 50 μM Fe^2+, alone or with inclusion of 0.1-100 μM 2-Hydroxy-TTBA (●) or trolox (◯), a membrane-permeable form of vitamin E). Neuronal death was analyzed 24 hr later by measuring levels of LDH released into the bathing medium, mean ±SEM (n=9-12 culture wells per condition), scaled to mean LDH efflux value 24 hr after sham wash (=0) and continuous exposure to 500 μM NMDA (=100). *, Significant difference from the vehicle control, p<0.05 using ANOVA and Student-Neuman-Keuls' test.
as §1, with “alone (♦)” for “alone”, “1-30” for “0.1-100”, “2-Hydroxy-TTS (●), 2-Hydroxy-TTA (◯), 2-Chloro-TTP (▾), 2-Ethan-TTBA (∇), 2-Propan-TTBA (▪),” for “2-Hydroxy-TTBA (●)”, “2-Cyclohexan-TTBA (□).” for “trolox (◯), a membrane-permeable form of vitamin E).”
(§2) For mixed neuron-glia culture, mouse cerebral cortices were removed from brains of the 14-16 day-old-fetal mice (E14-16), gently triturated and plated on 24 well plates (2×10^5 cells/plate) precoated with 100 μg/ml poly-D-lysine and 4 μg/ml laminine. Cultures were maintained at 37° C. in a humidified 5% CO2 atmosphere. Plating media consist of Eagles minimal essential media (MEM, Earles salts, supplied glutamine-free) supplemented with 5% horse serum, 5% fetal bovine serum, 26.5 mM bicarbonate, 2 mM glutamine, and 21 mM glucose.
(§3) After 7-8 days in vitro (DIV 7-8), 10 μM cytosine arabinofuranoside (Ara-C) was included to halt overgrowth of glia. The drug treatment was carried on DIV 12-15 cortical cell culture. Overall neuronal cell injury was assessed by measuring amount of lactate dehydrogenase (LDH) released into the bathing medium 24 hr after neurotoxic insults as previously described [Koh and Choi, J Neurosci Methods 20:83-90, 1987].
Mixed cortical cell cultures (DIV 13-15) were continuously exposed to 50 μM FeCl2, which produces hydroxyl radical via a Fenton reaction, alone or with inclusion of 2-Hydroxy-TTBA, 2-Hydroxy-TTA, 2-Hydroxy-TTS, 2-Chloro-TTP, 2-Ethan-TTBA, 2-Propan-TTBA, 2-Cyclohexan-TTBA or trolox (a vitamin E analogue) at indicated doses. Neuronal cell death was analyzed 24 hr later by LDH assay as described above. *, Significant difference from the vehicle control (FeCl2), p<0.05 using ANOVA and Student-Neuman-Keuls' test.
Consider `Oc1ccc(NCc2c(F)c(F)c(C(F)(F)F)c(F)c2F)cc1Cl` [2-Chloro-TTP, 2-chloro-4-(2,3,5,6-tetrafluoro-4-trifluoromethylbenzylamino)phenol], for which the “neuroprotective effect compared with trolox against FeCl2-induced free radical neurotoxicity” value was “much stronger neuroprotective effects than trolox”.

In the case of `O=C(O)c1cc(NCc2c(F)c(F)c(C(F)(F)F)c(F)c2F)ccc1OC(=O)C1CCCCC1` [2-Cyclohexan-TTBA, 2-cyclohexanecarbonyloxy-5-(2,3,5,6-tetrafluoro-4-trifluoromethylbenzylamino)benzoic acid], the “neuroprotective effect compared with trolox against FeCl2-induced free radical neurotoxicity” value was “much stronger neuroprotective effects than trolox”.

As for `CC(=O)Oc1ccc(NCc2c(F)c(F)c(C(F)(F)F)c(F)c2F)cc1C(=O)O` [2-Ethan-TTBA, 2-ethanoyloxy-5-(2,3,5,6-tetrafluoro-4-trifluoromethylbenzylamino)benzoic acid], the “neuroprotective effect compared with trolox against FeCl2-induced free radical neurotoxicity” value is on record as “much stronger neuroprotective effects than trolox”.

As to `NC(=O)c1cc(NCc2c(F)c(F)c(C(F)(F)F)c(F)c2F)ccc1O` [2-Hydroxy-TTA, 2-hydroxy-5-(2,3,5,6-tetrafluoro-4-trifluoromethylbenzylamino)benzamide], the “neuroprotective effect compared with trolox against FeCl2-induced free radical neurotoxicity” value was “much stronger neuroprotective effects than trolox”.

Consider `O=S(=O)(O)c1cc(NCc2c(F)c(F)c(C(F)(F)F)c(F)c2F)ccc1O` [2-Hydroxy-TTS, 2-hydroxy-5-(2,3,5,6-tetrafluoro-4-trifluoromethylbenzylamino)benzene sulfonic acid], for which the “neuroprotective effect compared with trolox against FeCl2-induced free radical neurotoxicity” value is given as “much stronger neuroprotective effects than trolox”.

Take `CCC(=O)Oc1ccc(NCc2c(F)c(F)c(C(F)(F)F)c(F)c2F)cc1C(=O)O` [2-Propan-TTBA, 2-propanoyloxy-5-(2,3,5,6-tetrafluoro-4-trifluoromethylbenzylamino)benzoic acid]: the “neuroprotective effect compared with trolox against FeCl2-induced free radical neurotoxicity” value is recorded as “much stronger neuroprotective effects than trolox”.

Staying with this data set, now noted: continuous 50 μM FeCl2; LDH 24 hr later.
In the case of `Cc1c(C)c2c(c(C)c1O)CCC(C)(C(=O)O)O2` (stereo not drawn) [trolox, reference compound], the “prevention of FeCl2-induced free radical neurotoxicity” value was “prevented FeCl2-induced free radical neurotoxicity in a dose-dependent manner”.

The next data set relates to Mouse cortical cell cultures. The experiment in a line: SNP (sodium nitroprusside) cytotoxicity in mixed cortical cell cultures (LDH assay). In kind it is cell-based. The settings on record: continuous 5 μM SNP; LDH 24 hr later. As to the method: Mouse cortical cell cultures (DIV 12-14) were exposed to continuously 5 μM sodium nitroprusside (SNP), alone (●) or with inclusion of 0.1-10 mM aspirin (◯), 1-100 μM trolox (▾), or 0.1-10 μM 2-Hydroxy-TTBA (∇). Neuronal death was analyzed 24 hr later by measuring levels of LDH released into the bathing medium, mean ±SEM (n=9-12 culture wells per condition), scaled to mean LDH efflux value 24 hr after sham wash (=0) and continuous exposure to 500 μM NMDA (=100). *, Significant difference from the vehicle control, p<0.05 using ANOVA and Student-Neuman-Keuls' test.
as §2, §3
Mixed cortical cell cultures were continuously exposed to 5 μM SNP, a nitric oxide (NO) donor, alone or with inclusion of 0.1-10 μM 2-Hydroxy-TTBA, 1-10 μM trolox or 100-10,000 μM aspirin. Neuronal cell death was analyzed 24 hr later by LDH assay. *, Significant difference from the vehicle control (SNP), p<0.05 using ANOVA and Student-Neuman-Keuls' test.
In the case of `CC(=O)Oc1ccccc1C(=O)O` [Aspirin, aspirin, reference compound], the “effect on SNP toxicity” value is recorded as “did not reduce SNP cytotoxicity”.

`Cc1c(C)c2c(c(C)c1O)CCC(C)(C(=O)O)O2` (stereo not drawn) [trolox, reference compound]: the “effect on SNP toxicity” value is listed as “completely blocked”.

System in the next data set: not given
Test: not given
Conditions: not given
For the compound `O=C(O)c1cc(NCc2c(F)c(F)c(C(F)(F)F)c(F)c2F)ccc1[N+](=O)[O-]` [Synthesis Example 2, 2-nitro-5-(2,3,5,6-tetrafluoro-4-trifluoromethylbenzylamino)benzoic acid], the melting point (as a rule, the temperature, or range, at which the solid turns liquid) amounted to 121 °C.

With `O=C(O)c1cc(NCc2c(F)c(F)c(C(F)(F)F)c(F)c2F)ccc1Cl` [Synthesis Example 3, 2-chloro-5-(2,3,5,6-tetrafluoro-4-trifluoromethylbenzylamino)benzoic acid], the melting point worked out at 58 °C.

`O=C(O)c1cc(NCc2c(F)c(F)c(C(F)(F)F)c(F)c2F)ccc1Br` [Synthesis Example 4, 2-bromo-5-(2,3,5,6-tetrafluoro-4-trifluoromethylbenzylamino)benzoic acid] gave a melting point of 70 °C.

Regarding `Cc1c(F)c(F)c(CNc2ccc(O)c(C(=O)O)c2)c(F)c1F` [Synthesis Example 5, 2-hydroxy-5-(2,3,5,6-tetrafluoro-4-methylbenzylamino)benzoic acid], the melting point was 212 °C.

Turning to `Cc1ccc(NCc2c(F)c(F)c(C(F)(F)F)c(F)c2F)cc1C(=O)O` [Synthesis Example 6, 2-methyl-5-(2,3,5,6-tetrafluoro-4-trifluoromethylbenzylamino)benzoic acid], the melting point amounted to 84 °C.

`COc1ccc(NCc2c(F)c(F)c(C(F)(F)F)c(F)c2F)cc1C(=O)O` [Synthesis Example 7, 2-methoxy-5-(2,3,5,6-tetrafluoro-4-trifluoromethylbenzylamino)benzoic acid] gave a melting point of 94 °C.

Take `O=C(O)c1cc(NCc2c(F)c(F)c(C(F)(F)F)c(F)c2F)ccc1OC(F)(F)F` [Synthesis Example 8, 5-(2,3,5,6-tetrafluoro-4-trifluoromethylbenzylamino)-2-trifluoromethoxybenzoic acid]: the melting point is 38 °C.

For the compound `O=[N+]([O-])c1cc(NCc2c(F)c(F)c(C(F)(F)F)c(F)c2F)ccc1O` [Synthesis Example 9, 2-nitro-4-(2,3,5,6-tetrafluoro-4-trifluoromethylbenzylamino)phenol], the melting point lay in the range of 126 to 128 °C.

The compound `COC(=O)c1cc(NCc2c(F)c(F)c(C(F)(F)F)c(F)c2F)ccc1O` [Synthesis Example 13, methyl 2-hydroxy-5-(2,3,5,6-tetrafluoro-4-trifluoromethylbenzylamino)benzoate] came in with a melting point of 127 °C.
